Experimental data reported in patent US10653732B2, “Composition for stimulating insulin secretion from cells and use thereof” (KOREA INSTITUTE OF SCIENCE AND TECHNOLOGY, priority 2017, dated 2020).
“Also recorded” adds a separate entry of the source.

Assays:
INS-1 cells [1] = assay: Protecting effect on pancreatic toxicity (streptozotocin-treated INS-1 cells, CCK-8); settings: for Cell viability (%): rat, 24 h
Description: The cell line INS-1 (Biohermes, Shanghai, China) was used to evaluate a protecting effect on pancreatic toxicity as follows.
INS-1 cells were cultured in RPMI1640 medium (Cellgro, Manassas, USA) supplemented with 10% fetal bovine serum (FBS), 100 unit/mL of penicillin G, 100 μg/mL of streptomycin, 10 mM Hepes, 2 mM L-glutamine, 1 mM sodium pyruvate, and 0.05 mM 2-merchapto ethanol in an incubator maintained at 37° C. and 95% air/5% carbon dioxide. Among the above-mentioned ingredients, the reagents of which manufacturers were not mentioned were purchased from Gibco BRL, Life Technologies.
The cultured INS-1 cells were dispensed at a density of 1×10^4 per well in 100 μL of the same medium in a 96-well plate, and cultured for 24 hours under the same conditions to stabilize the cells. […] Then, 10 μL (final concentration of 50 μM) of 500 μM streptozotocin in the same medium was added and cultured for 24 hours. Then, 10 μL of CCK-8 (Dojindo Laboratories, Japan) reagent was added to each well, and cultured at 37° C. 1 hour later, absorbance at 450 nm was measured by using a BIO-TEK (Winooski, Vt., USA) microplate reader to measure cell viability. The predetermined concentrations are as follows: concentrations of the extract and the fractions were 0 μg/mL, 5 μg/mL, 10 μg/mL, 25 μg/mL, 50 μg/mL, and 100 μg/mL. The concentration of the single compound was 0 μM, 5 μM, 10 μM, 25 μM, 50 μM, and 100 μM.

INS-1 cells [2] = assay: Measurement of cytotoxicity against INS-1 cells (CCK-8 cell viability); assay type: cell-based, rat; settings: for Cell viability (%): 24 hours, INS-1; for cytotoxicity / toxicity in words: INS-1 cells, concentrations of Table 1
Description: A cell line INS-1 (Biohermes, Shanghai, China) is a rat insulinoma, and has ability to secrete insulin.
The concentration of the single compound was 1.0 μM, 2.5 μM, and 5.0 μM.
In Table 1, cell viability was calculated by the following equation:
Cell viability (%)=NB×100, wherein A represents absorbance of a non-sample added group and B represents absorbance of a sample-added group.

INS-1 cells [3] = assay: Effect on insulin secretion of INS-1 cells (stimulation index, rat insulin RIA); assay type: cell-based; settings: for Stimulation index (SI): 16.7 mM / […] glucose; for insulin secretion of INS-1 cells in words: concentrations of Table 2
Description: Thereafter, the cells were washed twice with 2 ml of Krebs-Ringer buffer which was prepared by mixing 114 mM sodium chloride (NaCl), 4.4 mM potassium chloride (KCl), 1 mM magnesium sulfate (MgSO4), 1.28 mM calcium chloride (CaCl2), 29.5 mM sodium bicarbonate (NaHCO3), 10 mM Hepes (Gibco BRL Life Technologies), and 0.1% bovine serum albumin (BSA) and adjusting a hydrogen ion concentration at pH 7.4.
The concentration of the single compound was 1 μM, 2.5 μM, and 5 μM.
0.2 mL of Krebs-Ringer buffer containing […] glucose was added to each well, and incubated for 1 hour. Thereafter, centrifugation was performed at 4° C. for 10 minutes at 12,000 rpm, and a supernatant was taken and quantity of insulin was measured by using a Rat insulin RIA kit (Gentaur Molecular Products, Belgium). Stimulation index (SI) was calculated by dividing a value measured at a high concentration of glucose, i.e., quantity of insulin secreted by stimulation of 16.7 mM glucose by a value measured at a low concentration of glucose, i.e., quantity of insulin secreted by stimulation of 3.3 mM glucose. As a positive control group, gliclazide was used at a concentration of 2.5 μM, 5.0 μM, 10 μM, or 20 μM.

INS-1 cells [4] = assay: Image-based cell analysis of apoptosis (Annexin V/PI) in streptozotocin-treated INS-1 cells; set-up: species or system rat; settings: 50 μM streptozotocin; for green fluorescent (apoptotic) cells, microscopic image FIG. 8A: 10 μM or more; for Apoptosis (%): 10 μM, 24 hours, annexin V-positive cells; for apoptosis by streptozotocin in words, FIG. 8B: INS-1 cells
Description: Thereafter, hypoxylonol-C and BNT at a concentration of 10 μM were added to 2.7 mL of the same medium and further cultured for 2 hours. […] Then, cells were collected by using trypsin, and washed with PBS once. The cells were suspended in 100 μL of Annexin binding buffer (composition: 100 mM HEPES, 140 mM NaCl, 25 mM CaCl2, pH 7.4) at a density of 5×10^5 to 5×10^6 cells/mL, and then mixed with 5 μL of Annexin V Alexa Fluor 488, and fixed and stained at room temperature for 20 minutes in the dark room. The cell suspension was centrifuged to discard the supernatant. Precipitated cell pellets were re-suspended in 100 μL of Annexin binding buffer. 1 μL of propidium was added to the cell suspension and mixed well to fix and stain the cells at room temperature for 1 minute to 5 minutes in the dark room. Analysis of the stained cells was performed by using a Tali Image-based cytometer and TaliPCApp (version 1.0).
Cells were sorted into living cells (annexin V-negative/PI-negative), early apoptotic cells (annexin V-positive/PI-negative), and late apoptotic cells or necrotic cells (annexin V-positive/PI-positive), and total apoptotic cells was expressed as a percentage of annexin V-positive/PI-negative or positive cells.

[5] = Fukai et al., J. Nat. Prod. 2014, 77, 1065-1068; cited from earlier work
[6] = 1.0 (μg/mL; μM for single compound)
[7] = 2.5 (μg/mL; μM for single compound)
[8] = 5.0 (μg/mL; μM for single compound)
[9] = 1.0 (head μg/ml; b127 μM for single compound)
[10] = 2.5 (head μg/ml; b127, b128 μM for single compound and gliclazide)
[11] = 5.0 (head μg/ml; b127, b128 μM for single compound and gliclazide)

| SMILES | Cell viability (%) (INS-1 cells [2]; [6]) | Cell viability (%) (INS-1 cells [2]; [7]) | Cell viability (%) (INS-1 cells [2]; [8]) | cytotoxicity / toxicity in words (INS-1 cells [2]) | Stimulation index (SI) (INS-1 cells [3]; [9]) | Stimulation index (SI) (INS-1 cells [3]; [10]) | Stimulation index (SI) (INS-1 cells [3]; [11]) | insulin secretion of INS-1 cells in words (INS-1 cells [3]) | cell viability reduced by streptozotocin, effect in words (INS-1 cells [1]; 50 μM streptozotocin) | Cell viability (%) (INS-1 cells [1]; 5 µM) | Cell viability (%) (INS-1 cells [1]; 10 µM) | Cell viability (%) (INS-1 cells [1]; 25 µM) | Cell viability (%) (INS-1 cells [1]; 50 µM) | green fluorescent (apoptotic) cells, microscopic image FIG. 8A (INS-1 cells [4]) | Apoptosis (%) (INS-1 cells [4]) | apoptosis by streptozotocin in words, FIG. 8B (INS-1 cells [4]) | other results |
| --- | --- | --- | --- | --- | --- | --- | --- | --- | --- | --- | --- | --- | --- | --- | --- | --- | --- |
| CN(N=O)C(=O)N[C@H]1C(O)O[C@H](CO)[C@@H](O)[C@@H]1O (mixture of isomers) [streptozotocin, reference compound] |  |  |  |  |  |  |  |  |  |  |  |  |  |  |  |  | number of INS-1 cells as compared with non-treated group (INS-1 cells [1]; 50 μM streptozotocin, 24 hours): ≤ 50% |
| Oc1cccc2c(-c3ccc(O)c4c(O)cccc34)ccc(O)c12 [BNT, 1,1′-binaphthalene-4,4′,5,5′-tetrol] | 100.3 ± 3.6 | 100.1 ± 2.1 | 106.6 ± 2.9 | no cytotoxicity; also recorded: no toxicity | 6.7 ± 0.0 | 7.4 ± 0.0 | 6.8 ± 0.2 | concentration-dependent manner | significantly increased cell viability | 73.5 ± 3.0 | 76.8 ± 4.5 | 78.4 ± 1.5 | 81.5 ± 3.3 | apoptotic cells were decreased | 19.3 ± 0.5 | remarkably reduced apoptosis |  |
| O=C1CC2C(=C3c4c2ccc(O)c4[C@@H](O)C[C@@H]3O)c2cccc(O)c21 (stereo partly shown) [Hypoxylonol-C] | 97.4 ± 1.7 | 96.4 ± 1.4 | 97.3 ± 3.0 | no cytotoxicity; also recorded: no toxicity | 6.3 ± 0.3 | 5.3 ± 0.1 | 6.1 ± 0.1 | concentration-dependent manner | significantly increased cell viability | 66.0 ± 0.9 | 75.6 ± 2.5 | 80.7 ± 1.5 | 85.7 ± 1.7 | apoptotic cells were decreased | 21.6 ± 1.5 | remarkably reduced apoptosis | antiangiogenic effect [5]: has an antiangiogenic effect |
| O=C1CC2C(=C3c4c2ccc(O)c4[C@H](O)C[C@@H]3O)c2cccc(O)c21 (stereo partly shown) [Hypoxylonol-F] | 96.2 ± 4.5 | 97.3 ± 4.6 | 96.1 ± 0.9 | no cytotoxicity; also recorded: no toxicity | 7.1 ± 0.4 | 7.7 ± 0.3 | 10.6 ± 0.3 | concentration-dependent manner | significantly increased cell viability | 70.1 ± 1.7 | 68.3 ± 3.2 | 70.0 ± 4.3 | 69.8 ± 3.8 |  |  |  | Cell viability (%) (INS-1 cells [1]; 100 µM): 71.6 ± 0.9% |
| Cc1ccc(S(=O)(=O)NC(=O)NN2CC3CCCC3C2)cc1 (stereo not shown) [gliclazide, reference compound] |  |  |  |  |  | 6.1 ± 0.0 | 5.7 ± 0.0 |  |  |  |  |  |  |  |  |  | Stimulation index (SI) (INS-1 cells [3]; 10.0 (head μg/ml; b128 μM for gliclazide)): 6.1 ± 0.1; Stimulation index (SI) (INS-1 cells [3]; 20.0 (head μg/ml; b128 μM for gliclazide)): 9.3 ± 0.0 |
